{"source": "patent US12310929B2", "about": "“Use of rasagiline for the treatment of restless legs syndrome” (TEVA PHARMACEUTICAL INDUSTRIES, LTD., priority 2006, dated 2025)", "test_system": "RLS subjects", "conditions": "rasagiline 1 mg/day oral", "description": "This was the first clinical study in which rasagiline was administered to RLS subjects. The dosage regimen of 1 mg/day rasagiline was chosen based on the optimal dosage regimen for the symptomatic treatment of PD. […] Therefore, in the event that a subject could not tolerate the 1 mg daily dose of rasagiline, a daily dose of 0.5 mg rasagiline was permitted. Rasagiline was administered orally as a tablet. Both the 1 mg and 0.5 mg rasagiline tablets were beveled round tablets, flat, white to off-white, scored on one side, plain on the other side. Teva Pharmaceutical Industries Ltd. was responsible for the manufacture and primary packaging of study medications according to current Good Manufacturing Practice (cGMP) principles and guidelines applicable to investigational medicinal products.\nThe Sleep Scale is a 12-item scale that provides a comprehensive view across almost all dimensions of sleep including daytime somnolence, sleep disturbance, sleep adequacy and sleep quantity. The investigator scored subjects on this scale at the baseline and Week 4, and 8 visits. The change from baseline to each post-baseline study visit was calculated as a secondary efficacy endpoint. (Hays, R. D. & Steward, A. L. (1992). Sleep measures. In A. L. Stewart & J. E. Ware (eds.), Measuring functioning and well-being: The Medical Outcomes Study approach (pp. 235-259), Durham, NC: Duke University Press.\nN is the number of participants in the study. A low score indicates the absence of problems and a high score indicates a very severe problem.", "note": "Like-named read-outs stand apart in the source and are kept apart here."}
{"smiles": "C#CCN[C@@H]1CCc2ccccc21", "note": "[rasagiline, R-(+)-N-propargyl-1-aminoindan]", "values": [{"measurement": "Optimal Sleep (Absolute Change) Mean", "setting": "VISIT WEEK 4, N=1", "value": 0.00}, {"measurement": "Optimal Sleep (Absolute Change) Median", "setting": "VISIT WEEK 4, N=1", "value": 0.00}, {"measurement": "Optimal Sleep (Percent Change) Mean", "setting": "VISIT WEEK 4, N=1", "value": 0.00, "unit": "%"}, {"measurement": "Optimal Sleep (Percent Change) Median", "setting": "VISIT WEEK 4, N=1", "value": 0.00, "unit": "%"}, {"measurement": "Optimal Sleep Scale Mean", "setting": "VISIT WEEK 4, N=1", "value": 1.00}, {"measurement": "Optimal Sleep Scale Median", "setting": "VISIT WEEK 4, N=1", "value": 1.00}, {"measurement": "Sleep Quantity (Absolute Change) Mean", "setting": "VISIT WEEK 4, N=1", "value": 0.00}, {"measurement": "Sleep Quantity (Absolute Change) Median", "setting": "VISIT WEEK 4, N=1", "value": 0.00}, {"measurement": "Sleep Quantity (Percent Change) Mean", "setting": "VISIT WEEK 4, N=1", "value": 0.00, "unit": "%"}, {"measurement": "Sleep Quantity (Percent Change) Median", "setting": "VISIT WEEK 4, N=1", "value": 0.00, "unit": "%"}, {"measurement": "Sleep Quantity (raw score) Mean", "setting": "VISIT WEEK 4, N=1", "value": 7.00}, {"measurement": "Sleep Quantity (raw score) Median", "setting": "VISIT WEEK 4, N=1", "value": 7.00}, {"measurement": "Sleep Snoring (Percent Change) Mean", "setting": "VISIT WEEK 4, N=1", "value": 0.00, "unit": "%"}, {"measurement": "Sleep Snoring (Percent Change) Median", "setting": "VISIT WEEK 4, N=1", "value": 0.00, "unit": "%"}, {"measurement": "Short of Breath Scale Mean", "setting": "VISIT WEEK 4, N=2", "value": 0.00}, {"measurement": "Short of Breath Scale Median", "setting": "VISIT WEEK 4, N=2", "value": 0.00}, {"measurement": "Sleep Adequacy (Absolute Change) Mean", "setting": "VISIT WEEK 4, N=2", "value": 15.00}, {"measurement": "Sleep Adequacy (Absolute Change) Median", "setting": "VISIT WEEK 4, N=2", "value": 15.00}, {"measurement": "Sleep Adequacy (Percent Change) Mean", "setting": "VISIT WEEK 4, N=2", "value": 25.00, "unit": "%"}, {"measurement": "Sleep Adequacy (Percent Change) Median", "setting": "VISIT WEEK 4, N=2", "value": 25.00, "unit": "%"}, {"measurement": "Sleep Adequacy Mean", "setting": "VISIT WEEK 4, N=2", "value": 55.00}, {"measurement": "Sleep Adequacy Median", "setting": "VISIT WEEK 4, N=2", "value": 55.00}, {"measurement": "Sleep Disturbance (Absolute Change) Mean", "setting": "VISIT WEEK 4, N=2", "value": "−7.50"}, {"measurement": "Sleep Disturbance (Absolute Change) Median", "setting": "VISIT WEEK 4, N=2", "value": "−7.50"}, {"measurement": "Sleep Disturbance (Percent Change) Mean", "setting": "VISIT WEEK 4, N=2", "value": "−20.00", "unit": "%"}, {"measurement": "Sleep Disturbance (Percent Change) Median", "setting": "VISIT WEEK 4, N=2", "value": "−20.00", "unit": "%"}, {"measurement": "Sleep Disturbance Scale Mean", "setting": "VISIT WEEK 4, N=2", "value": 33.75}, {"measurement": "Sleep Disturbance Scale Median", "setting": "VISIT WEEK 4, N=2", "value": 33.75}, {"measurement": "Sleep Problems Index I (Absolute Change) Mean", "setting": "VISIT WEEK 4, N=2", "value": "−6.67"}, {"measurement": "Sleep Problems Index I (Absolute Change) Median", "setting": "VISIT WEEK 4, N=2", "value": "−6.67"}, {"measurement": "Sleep Problems Index I (Percent Change) Mean", "setting": "VISIT WEEK 4, N=2", "value": "−40.00", "unit": "%"}, {"measurement": "Sleep Problems Index I (Percent Change) Median", "setting": "VISIT WEEK 4, N=2", "value": "−40.00", "unit": "%"}, {"measurement": "Sleep Problems Index I Mean", "setting": "VISIT WEEK 4, N=2", "value": 26.67}, {"measurement": "Sleep Problems Index I Median", "setting": "VISIT WEEK 4, N=2", "value": 26.67}, {"measurement": "Sleep Problems Index II (Absolute Change) Mean", "setting": "VISIT WEEK 4, N=2", "value": "−6.67"}, {"measurement": "Sleep Problems Index II (Absolute Change) Median", "setting": "VISIT WEEK 4, N=2", "value": "−6.67"}, {"measurement": "Sleep Problems Index II (Percent Change) Mean", "setting": "VISIT WEEK 4, N=2", "value": 24.00, "unit": "%"}, {"measurement": "Sleep Problems Index II (Percent Change) Median", "setting": "VISIT WEEK 4, N=2", "value": "−24.00", "unit": "%"}, {"measurement": "Sleep Problems Index II Mean", "setting": "VISIT WEEK 4, N=2", "value": 33.89}, {"measurement": "Sleep Problems Index II Median", "setting": "VISIT WEEK 4, N=2", "value": 33.89}, {"measurement": "Sleep Short of Breath (Absolute Change) Mean", "setting": "VISIT WEEK 4, N=2", "value": 0.00}, {"measurement": "Sleep Short of Breath (Absolute Change) Median", "setting": "VISIT WEEK 4, N=2", "value": 0.00}, {"measurement": "Sleep Snoring (Absolute Change) Mean", "setting": "VISIT WEEK 4, N=2", "value": 0.00}, {"measurement": "Sleep Snoring (Absolute Change) Median", "setting": "VISIT WEEK 4, N=2", "value": 0.00}, {"measurement": "Sleep Somnolence (Absolute Change) Mean", "setting": "VISIT WEEK 4, N=2", "value": "−0.00"}, {"measurement": "Sleep Somnolence (Absolute Change) Median", "setting": "VISIT WEEK 4, N=2", "value": "−0.00"}, {"measurement": "Sleep Somnolence (Percent Change) Mean", "setting": "VISIT WEEK 4, N=2", "value": "−20.00", "unit": "%"}, {"measurement": "Sleep Somnolence (Percent Change) Median", "setting": "VISIT WEEK 4, N=2", "value": "−20.00", "unit": "%"}, {"measurement": "Snoring Scale Mean", "setting": "VISIT WEEK 4, N=2", "value": 40.00}, {"measurement": "Snoring Scale Median", "setting": "VISIT WEEK 4, N=2", "value": 40.00}, {"measurement": "Somnolence Scale Mean", "setting": "VISIT WEEK 4, N=2", "value": 40.00}, {"measurement": "Somnolence Scale Median", "setting": "VISIT WEEK 4, N=2", "value": 40.00}, {"measurement": "Optimal Sleep (Absolute Change) Mean", "setting": "VISIT WEEK 8, N=1", "value": 0.00}, {"measurement": "Optimal Sleep (Absolute Change) Median", "setting": "VISIT WEEK 8, N=1", "value": 0.00}, {"measurement": "Optimal Sleep (Percent Change) Mean", "setting": "VISIT WEEK 8, N=1", "value": 0.00, "unit": "%"}, {"measurement": "Optimal Sleep (Percent Change) Median", "setting": "VISIT WEEK 8, N=1", "value": 0.00, "unit": "%"}, {"measurement": "Optimal Sleep Scale Mean", "setting": "VISIT WEEK 8, N=1", "value": 1.00}, {"measurement": "Optimal Sleep Scale Median", "setting": "VISIT WEEK 8, N=1", "value": 1.00}, {"measurement": "Short of Breath Scale Mean", "setting": "VISIT WEEK 8, N=1", "value": 0.00}, {"measurement": "Short of Breath Scale Median", "setting": "VISIT WEEK 8, N=1", "value": 0.00}, {"measurement": "Sleep Adequacy (Absolute Change) Mean", "setting": "VISIT WEEK 8, N=1", "value": 40.00}, {"measurement": "Sleep Adequacy (Absolute Change) Median", "setting": "VISIT WEEK 8, N=1", "value": 40.00}]}
